{"source": "patent US9119858B2", "about": "“Compositions and methods for treating or preventing anthracycline induced cardiotoxicity” (Genesys Research Institute, priority 2012, dated 2015)", "key": {"doxorubicin injured mice [1]": {"tested_on": "doxorubicin injured mice", "conditions": "ten weeks after initiation of doxorubicin treatment", "procedure": "(§1) After the completion of doxorubicin treatment, mice were subsequently treated with either Lapatinib alone (100 mg/kg, oral gavage, daily) or Rapamycin alone (6 mg/kg, i.p., daily). Survival was monitored. Cardiac function was assessed by hemodynamic measurements."}, "doxorubicin treated mice [2]": {"tested_on": "doxorubicin treated mice", "assay": "Hemodynamic measurements (dP/dtmax, dP/dtmin) in doxorubicin and doxorubicin+lapatinib treated mice", "conditions": "FIG. 4", "protocol": "(§2) Female FVB/n mice between 10 and 12 weeks old were treated with doxorubicin (2 mg/kg) by intraperitoneal injection (i.p.) twice a week for 7 weeks. […] After completion of the doxorubicin treatment cycle, the mice were subsequently treated with various doses of lapatinib (25, 50, and 100 mg/kg, given by oral gavage, daily) or with vehicle control.\n(§3) Cardiac function of the doxorubicin and doxorubicin+lapatinib treated mice was evaluated by echocardiography."}, "doxorubicin injured mice [3]": {"tested_on": "doxorubicin injured mice", "assay": "Cardiac output by hemodynamic measurements in doxorubicin injured mice treated with Lapatinib or Rapamycin", "type": "in vivo", "procedure": "as §1"}, "doxorubicin treated mice [4]": {"tested_on": "doxorubicin treated mice"}, "doxorubicin treated mice [5]": {"tested_on": "doxorubicin treated mice", "assay": "Echocardiography of doxorubicin and doxorubicin+lapatinib treated mice", "conditions": "FIG. 3", "protocol": "as §2, §3"}, "[6]": {"tested_on": "doxorubicin+BEZ235 treated mice", "assay": "Echocardiography and heart/lung weight ratios in mice co-treated with doxorubicin, BEZ235 and lapatinib", "conditions": "lapatinib co-treatment of doxorubicin+BEZ235 treated mice; FIG. 6", "protocol": "FVB/n female mice were treated with doxorubicin (2 mg/kg, i.p.) twice a week, PI3 kinase-mTOR inhibitor BEZ235 (35-50 mg/kg, oral, daily) and lapatinib (25, 50 or 100 mg/kg, oral, daily). Cardiac function was monitored by echocardiography."}, "[7]": {"conditions": "doxorubicin treated vs. control mice"}, "[8]": {"conditions": "nine weeks after initiation of doxorubicin treatment, doxorubicin treated versus control mice"}, "[9]": {"conditions": "doxorubicin+lapatinib treated vs control mice"}, "[10]": {"conditions": "three weeks after initiation of lapatinib treatment, doxorubicin+lapatinib vs doxorubicin treated mice"}}, "note": "Read-outs that look alike come from different tables or passages of the source.", "data": [{"smiles": "CO[C@H]1C[C@@H]2CC[C@@H](C)[C@@](O)(O2)C(=O)C(=O)N2CCCC[C@H]2C(=O)O[C@H]([C@H](C)C[C@@H]2CC[C@@H](O)[C@H](OC)C2)CC(=O)[C@H](C)/C=C(\\C)[C@@H](O)[C@@H](OC)C(=O)[C@H](C)C[C@H](C)/C=C/C=C/C=C/1C", "note": "[Rapamycin]", "values": [{"measurement": "survival", "setting": "doxorubicin injured mice [1]; Rapamycin 6 mg/kg i.p. daily after doxorubicin", "value": 63, "unit": "%"}]}, {"smiles": "COc1cccc2c1C(=O)c1c(O)c3c(c(O)c1C2=O)C[C@@](O)(C(=O)CO)C[C@@H]3O[C@H]1C[C@H](N)[C@H](O)[C@H](C)O1", "note": "[doxorubicin]", "values": [{"measurement": "survival", "setting": "doxorubicin injured mice [1]; Solvent treated doxorubicin injured mice (doxorubicin 2 mg/kg i.p. twice a week for 7 weeks)", "value": 43, "unit": "%"}, {"measurement": "dP/dtmax", "setting": "doxorubicin treated mice [2]; [7]", "value": "significantly decreased"}, {"measurement": "dP/dtmin", "setting": "doxorubicin treated mice [2]; [7]", "value": "significantly decreased"}, {"measurement": "cardiac output", "setting": "doxorubicin injured mice [3]; Solvent treated doxorubicin injured mice vs. non-treated control mice, ten weeks", "value": "significantly decreased"}, {"measurement": "survival", "setting": "doxorubicin treated mice [4]; 64 days after initiation of doxorubicin treatment, doxorubicin 2 mg/kg i.p. twice a week for 7 weeks, then vehicle control, female FVB/n mice", "value": 68, "unit": "%"}, {"measurement": "survival", "setting": "doxorubicin treated mice [4]; 70 days after initiation of doxorubicin treatment, doxorubicin 2 mg/kg i.p. twice a week for 7 weeks, then vehicle control", "value": 34, "unit": "%"}, {"measurement": "EF %", "setting": "doxorubicin treated mice [5]; [8]", "value": "decreased"}, {"measurement": "ESV", "setting": "doxorubicin treated mice [5]; [8]", "value": "significantly increased"}]}, {"smiles": "CS(=O)(=O)CCNCc1ccc(-c2ccc3ncnc(Nc4ccc(OCc5cccc(F)c5)c(Cl)c4)c3c2)o1", "note": "[lapatinib, N-[3-chloro-4-[(3-fluorophenyl)methoxy]phenyl]-6-[5-[(2-methylsulfonylethylamino)methyl]-2-furyl]quinazolin-4-amine]", "values": [{"measurement": "survival", "setting": "doxorubicin injured mice [1]; Lapatinib 100 mg/kg oral gavage daily after doxorubicin", "value": 71, "unit": "%"}, {"measurement": "EF %", "setting": "[6]", "value": "reversed these effects"}, {"measurement": "end-diastolic volume (EDV)", "setting": "[6]", "value": "reversed these effects"}, {"measurement": "end-systolic volume (ESV)", "setting": "[6]", "value": "reversed these effects"}, {"measurement": "heart weight to body weight ratio (HW/BW)", "setting": "[6]", "value": "reversed these effects"}, {"measurement": "lung to body weight ratio", "setting": "[6]", "value": "reversed these effects"}, {"measurement": "relative wall thickness (RWth)", "setting": "[6]", "value": "reversed these effects"}, {"measurement": "dP/dtmax", "setting": "doxorubicin treated mice [2]; [9]", "value": "not different"}, {"measurement": "dP/dtmin", "setting": "doxorubicin treated mice [2]; [9]", "value": "not different"}, {"measurement": "cardiac output", "setting": "doxorubicin injured mice [3]; Lapatinib (100 mg/kg oral daily) treated doxorubicin injured mice vs. non-treated control mice", "value": "No difference"}, {"measurement": "survival", "setting": "doxorubicin treated mice [4]; 64 days after initiation of doxorubicin treatment, lapatinib 25 mg/kg oral gavage daily after the doxorubicin cycle", "value": 100, "unit": "%"}, {"measurement": "survival", "setting": "doxorubicin treated mice [4]; 64 days after initiation of doxorubicin treatment, lapatinib 50 mg/kg oral gavage daily after the doxorubicin cycle", "value": 83, "unit": "%"}, {"measurement": "survival", "setting": "doxorubicin treated mice [4]; 64 days after initiation of doxorubicin treatment, lapatinib 100 mg/kg oral gavage daily after the doxorubicin cycle", "value": 71, "unit": "%"}, {"measurement": "survival", "setting": "doxorubicin treated mice [4]; 70 days after initiation of doxorubicin treatment, lapatinib 100 mg/kg oral gavage daily after the doxorubicin cycle", "value": 55, "unit": "%"}, {"measurement": "survival of doxorubicin treated mice (FIG. 1)", "setting": "doxorubicin treated mice [4]; lapatinib 25, 50 and 100 mg/kg oral gavage daily vs vehicle control", "value": "improved survival"}, {"measurement": "EF %", "setting": "doxorubicin treated mice [5]; [10]", "value": "reversed these effects"}, {"measurement": "ESV", "setting": "doxorubicin treated mice [5]; [10]", "value": "reversed these effects"}]}]}
